Measurements from patent publication US20230148599A1, “FUNGICIDAL MIXTURES CONTAINING PYRAZOLE DERIVATIVES” (FMC Corporation, priority 2020, published 2023).

What was measured:
Assay type in all cases: in vivo
Settings in all cases: 50 ppm, 100 = 100% disease control, 0 = no control
Septoria tritici = assay: Test A: wheat leaf blotch, preventive spray on wheat seedlings
How it was run: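 Preventive test: one day after spraying seedlings to run-off (concentrations in ppm; acetone/water, 250 ppm PEG400), Septoria tritici spores applied. Scored after 48 h humid incubation at 24 °C plus 17 days at 20 °C, as percent disease control versus untreated controls (100 = full control).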

[1] = system: Puccinia recondita f. sp. tritici; assay: Test B: wheat leaf rust, preventive spray on wheat seedlings
How it was run: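 Preventive test: compound in acetone/water 50/50 with 250 ppm PEG400 was sprayed onto wheat seedlings one day before inoculation with leaf rust spores. After 24 h in saturated air and 7 days in a growth chamber, both at 20 °C, disease control was scored from 0 to 100 against controls.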

[2] = system: Blumeria graminis f. sp. tritici; assay: Test C: wheat powdery mildew, preventive spray on wheat seedlings
How it was run: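 Preventive test: inoculation with spore dust came one day after spraying seedlings to run-off with ppm suspensions in acetone/water (50/50) plus 250 ppm PEG400 surfactant. Visual ratings after 8 days' incubation at 20° C give percent disease control relative to controls.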

Phakopsora pachyrhizi = assay: Test D: Asian soybean rust, preventive spray on soybean seedlings
How it was run: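 Compounds in acetone/water (50/50) with 250 ppm PEG400, dosed in ppm, sprayed to run-off on soybean seedlings; inoculated with P. pachyrhizi spores next day. Held 24 h at 22 °C in saturated air, then 8 days at 22 °C; visual rating of disease control, 0–100, relative to untreated controls.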

Botrytis cinerea = assay: Test E: tomato Botrytis, preventive spray on tomato seedlings
How it was run: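 Preventive test: seedlings sprayed to run-off with compound in acetone/water (50/50) plus 250 ppm PEG400, inoculated one day later with B. cinerea spores. Held 48 h saturated at 20° C, then 3 days at 24° C; disease control scored visually from 0 to 100 versus controls.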

Alternaria solani = assay: Test F: tomato early blight, preventive spray on tomato seedlings
How it was run: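 Preventive test: one day after the compound spray, seedlings were inoculated with A. solani, incubated saturated at 27 °C for 48 h, then kept at 20 °C for 3 days. Test suspensions contained acetone/water 50/50 with 250 ppm PEG400 surfactant. Visual ratings run from 0 (no control) to 100 (full control).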

| SMILES | Test A disease control rating (Septoria tritici) | Test B disease control rating [1] | Test C disease control rating [2] | Test D disease control rating (Phakopsora pachyrhizi) | Test E disease control rating (Botrytis cinerea) | Test F disease control rating (Alternaria solani) |
| --- | --- | --- | --- | --- | --- | --- |
| COc1cc(F)c(-c2c(C)nn(C)c2Nc2c(F)cc(F)cc2[N+](=O)[O-])c(F)c1 [compound 84] | 100% | 100% | 99% | 48% | 90% | 99% |
| COc1cc(F)c(Nc2c(-c3ccc(F)cc3Cl)c(C)nn2C)c([N+](=O)[O-])c1 [compound 85] | 100% | 100% | 97% | 96% | 94% | 98% |
| COc1cc(F)c(-c2c(C)nn(C)c2Nc2c(F)cc(Cl)cc2[N+](=O)[O-])c(F)c1 [compound 86] | 100% | 100% | 98% | 77% | 96% | 99% |
| Cc1ccc(Nc2c(-c3ccc(F)cc3Br)c(C)nn2C)c([N+](=O)[O-])c1 [compound 90] | 100% | 95% | 87% | 0% | 99% | 9% |
| Cc1nn(C)c(Nc2ccc(Br)cc2[N+](=O)[O-])c1-c1ccc(F)cc1Cl [compound 91] | 99% | 88% | 84% | 0% | 99% | 26% |
| Cc1nn(C)c(Nc2ccc(Cl)cc2[N+](=O)[O-])c1-c1ccc(F)cc1Cl [compound 92] | 100% | 96% | 89% | 0% | 100% | 79% |
| Cc1nn(C)c(Nc2ccc(OC(F)(F)F)cc2[N+](=O)[O-])c1-c1ccc(F)cc1Cl [compound 94] | 73% | 0% | 72% | 73% | 0% | 9% |
| CCc1nn(C)c(Nc2c(F)cc(F)cc2[N+](=O)[O-])c1-c1ccc(F)cc1Cl [compound 95] | 100% | 100% | 100% | 84% | 99% | 99% |
| Cc1nn(C)c(Nc2c(Cl)cc(Cl)cc2[N+](=O)[O-])c1-c1c(F)cccc1F [compound 96] | 100% | 95% | 0% | 0% | 80% | 0% |
| COc1cc(F)c(Nc2c(-c3c(F)cccc3F)c(C)nn2C)c([N+](=O)[O-])c1 [compound 97] | 100% | 100% | 100% | 96% | 100% | 99% |
| Cc1nn(C)c(Nc2c(F)cc(Cl)cc2[N+](=O)[O-])c1-c1c(F)cccc1F [compound 98] | 100% | 97% | 93% | 0% | 99% | 98% |
| Cc1nn(C)c(Nc2cccc(Cl)c2[N+](=O)[O-])c1-c1c(F)cccc1F [compound 99] | 99% | 0% | 0% | 0% | 24% | 0% |
| Cc1cc(Cl)c(Nc2c(-c3c(F)cccc3F)c(C)nn2C)c([N+](=O)[O-])c1 [compound 100] | 100% | 89% | 21% | 0% | 26% | 0% |
| Cc1nn(C)c(Nc2c(Cl)cc(Cl)cc2[N+](=O)[O-])c1-c1ccc(F)cc1F [compound 101] | 100% | 99% | 89% | 44% | 99% | 0% |
| Cc1nn(C)c(Nc2c(F)cc(Cl)cc2[N+](=O)[O-])c1-c1ccc(F)cc1F [compound 102] | 100% | 100% | 100% | 48% | 99% | 99% |
| CCOc1ccc(Nc2c(-c3ccc(F)cc3Cl)c(C)nn2C)c([N+](=O)[O-])c1 [compound 103] | 97% | 80% | 50% | 0% | 83% | 0% |
| Cc1nn(C)c(Nc2ccc(OC(C)C)cc2[N+](=O)[O-])c1-c1ccc(F)cc1Cl [compound 104] | 60% | 0% | 72% | 0% | 0% | 0% |
| Cc1ccc(Nc2c(-c3c(F)cccc3F)c(C)nn2C)c([N+](=O)[O-])c1 [compound 105] | 99% | 74% | 86% | 0% | 73% | 0% |
| Cc1nn(C)c(Nc2c(Cl)cccc2[N+](=O)[O-])c1-c1ccc(F)cc1Cl [compound 108] | 100% | 100% | 97% | 86% | 100% | 77% |
| Cc1nn(C)c(Nc2c(F)cc(F)cc2[N+](=O)[O-])c1-c1ccc(F)cc1Cl [compound 109] | 100% | 100% | 100% | 93% | 100% | 99% |
| Cc1nn(C)c(Nc2c(Br)cccc2[N+](=O)[O-])c1-c1ccc(F)cc1Cl [compound 110] | 100% | 98% | 56% | 73% | 99% | 0% |
| Cc1nn(C)c(Nc2c(F)cccc2[N+](=O)[O-])c1-c1c(F)cc(C#N)cc1F [compound 114] | 100% | 98% | 99% | 73% | 100% | 99% |
| Cc1nn(C)c(Nc2c(F)cc(Cl)cc2[N+](=O)[O-])c1-c1ccc(C#N)cc1Cl [compound 115] | 100% | 100% | 94% | 77% | 99% | 99% |
| Cc1nn(C)c(Nc2c(Cl)cc(Cl)cc2[N+](=O)[O-])c1-c1ccc(C#N)cc1Cl [compound 116] | 99% | 99% | 56% | 0% | 63% | 82% |
| Cc1cccc([N+](=O)[O-])c1Nc1c(-c2ccc(F)cc2Cl)c(C)nn1C [compound 117] | 99% | 100% | 95% | 0% | 99% | 76% |
| COc1ccc(Nc2c(-c3ccc(F)cc3Cl)c(C)nn2C)c([N+](=O)[O-])c1 [compound 119] | 100% | 100% | 99% | 92% | 100% | 99% |
